Test results reported in patent EP2970215B1, “PYRROLIDINE DERIVATIVES, PHARMACEUTICAL COMPOSITIONS CONTAINING THEM, AND THEIR USE IN THERAPY” (AbbVie Deutschland GmbH & Co. KG, priority 2013, dated 2014).

target: T1, human GlyT1c transporter (Homo sapiens, UniProt P48067); test: Radioligand binding assay using recombinant CHO cell membranes expressing human GlyT1; details: radioligand binding to human GlyT1c transporter-expressing membranes
T1 construct: expressed in transfected cells; host or cells: CHO cells (recombinant; line hGlyT1c_5_CHO is named for the uptake assay)
T1 sequence (P48067 1-706): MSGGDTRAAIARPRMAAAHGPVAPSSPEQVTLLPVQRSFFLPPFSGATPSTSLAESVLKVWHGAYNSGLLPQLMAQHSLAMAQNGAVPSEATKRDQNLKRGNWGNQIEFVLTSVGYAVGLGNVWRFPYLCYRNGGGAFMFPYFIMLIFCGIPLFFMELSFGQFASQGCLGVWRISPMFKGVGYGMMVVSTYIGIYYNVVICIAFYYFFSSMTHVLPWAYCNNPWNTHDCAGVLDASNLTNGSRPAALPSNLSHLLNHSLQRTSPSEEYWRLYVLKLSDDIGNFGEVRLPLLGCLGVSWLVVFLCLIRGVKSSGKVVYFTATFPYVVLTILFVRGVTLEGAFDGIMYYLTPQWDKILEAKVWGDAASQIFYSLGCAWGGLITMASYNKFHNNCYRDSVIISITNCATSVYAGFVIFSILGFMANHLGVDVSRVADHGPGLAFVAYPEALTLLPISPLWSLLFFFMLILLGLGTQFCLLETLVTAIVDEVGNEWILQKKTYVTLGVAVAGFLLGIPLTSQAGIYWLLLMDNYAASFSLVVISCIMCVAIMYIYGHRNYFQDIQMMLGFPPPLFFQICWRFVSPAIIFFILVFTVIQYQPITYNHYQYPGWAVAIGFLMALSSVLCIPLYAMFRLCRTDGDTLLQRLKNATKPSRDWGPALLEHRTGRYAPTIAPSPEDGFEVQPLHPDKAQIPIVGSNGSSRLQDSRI
From the text: 2. Radioligand binding assays using recombinant CHO cell membranes expressing human GlyT1: […]

Row | SMILES | Ki
1 | Cn1cnc(S(=O)(=O)N2C[C@@H](Nc3ccnc(C(F)(F)F)c3)[C@H](c3ccccc3Cl)C2)c1 (relative stereo) [Example 259, N-{trans-4-(2-chlorophenyl)-1-[(1-methyl-1H-imidazol-4-yl)sulfonyl]pyrrolidin-3-yl}-2-(trifluoromethyl)pyridin-4-amine] | ≤ 1000 nM
2 | Cn1cnc(S(=O)(=O)N2C[C@@H](NCc3cccc(Cl)c3)[C@H](c3ccc(F)cc3)C2)c1 (relative stereo) [Example 261, trans-N-(3-chlorobenzyl)-4-(4-fluorophenyl)-1-[(1-methyl-1H-imidazol-4-yl)sulfonyl]pyrrolidin-3-amine] | ≤ 1000 nM
3 | Cn1cnc(S(=O)(=O)N2C[C@@H](NCc3cccc(C(F)(F)F)c3)[C@H](c3ccc(F)cc3)C2)c1 (relative stereo) [Example 266, trans-4-(4-fluorophenyl)-1-[(1-methyl-1H-imidazol-4-yl)sulfonyl]-N-[3-(trifluoromethyl)benzyl]pyrrolidin-3-amine] | ≤ 1000 nM
4 | Cn1cnc(S(=O)(=O)N2C[C@@H](NCc3ccc(C(F)(F)F)cc3)[C@H](c3ccc(F)cc3)C2)c1 (relative stereo) [Example 267, trans-4-(4-fluorophenyl)-1-[(1-methyl-1H-imidazol-4-yl)sulfonyl]-N-[4-(trifluoromethyl)benzyl]pyrrolidin-3-amine] | ≤ 10 nM
5 | Cn1cnc(S(=O)(=O)N2C[C@@H](NCc3ccccn3)[C@H](c3ccc(F)cc3)C2)c1 (relative stereo) [Example 268, trans-4-(4-fluorophenyl)-1-[(1-methyl-1H-imidazol-4-yl)sulfonyl]-N-(pyridin-2-ylmethyl)pyrrolidin-3-amine] | ≤ 10000 nM
6 | Cn1cnc(S(=O)(=O)N2C[C@@H](NCc3cccnc3)[C@H](c3ccc(F)cc3)C2)c1 (relative stereo) [Example 269, trans-4-(4-fluorophenyl)-1-[(1-methyl-1H-imidazol-4-yl)sulfonyl]-N-(pyridin-3-ylmethyl)pyrrolidin-3-amine] | ≤ 10000 nM
7 | Cn1cnc(S(=O)(=O)N2C[C@@H](NCc3ccncc3)[C@H](c3ccc(F)cc3)C2)c1 (relative stereo) [Example 270, trans-4-(4-fluorophenyl)-1-[(1-methyl-1H-imidazol-4-yl)sulfonyl]-N-(pyridin-4-ylmethyl)pyrrolidin-3-amine] | ≤ 10000 nM

Further lines, results first:

Row | Ki | SMILES
8 | ≤ 100 nM | Cn1cnc(S(=O)(=O)N2C[C@@H](NCc3ccccc3Cl)[C@H](c3ccc(F)cc3)C2)c1 (relative stereo) [Example 260, trans-N-(2-chlorobenzyl)-4-(4-fluorophenyl)-1-[(1-methyl-1H-imidazol-4-yl)sulfonyl]pyrrolidin-3-amine]
9 | ≤ 10 nM | Cn1cnc(S(=O)(=O)N2C[C@@H](NCc3ccc(Cl)cc3)[C@H](c3ccc(F)cc3)C2)c1 (relative stereo) [Example 262, trans-N-(4-chlorobenzyl)-4-(4-fluorophenyl)-1-[(1-methyl-1H-imidazol-4-yl)sulfonyl]pyrrolidin-3-amine]
10 | ≤ 100 nM | Cn1cnc(S(=O)(=O)N2C[C@@H](NCc3ccccc3F)[C@H](c3ccc(F)cc3)C2)c1 (relative stereo) [Example 263, trans-N-(2-fluorobenzyl)-4-(4-fluorophenyl)-1-[(1-methyl-1H-imidazol-4-yl)sulfonyl]pyrrolidin-3-amine]
11 | ≤ 1000 nM | Cn1cnc(S(=O)(=O)N2C[C@@H](NCc3cccc(F)c3)[C@H](c3ccc(F)cc3)C2)c1 (relative stereo) [Example 264, trans-N-(3-fluorobenzyl)-4-(4-fluorophenyl)-1-[(1-methyl-1H-imidazol-4-yl)sulfonyl]pyrrolidin-3-amine]
12 | ≤ 1000 nM | Cn1cnc(S(=O)(=O)N2C[C@@H](NCc3ccccc3C(F)(F)F)[C@H](c3ccc(F)cc3)C2)c1 (relative stereo) [Example 265, trans-4-(4-fluorophenyl)-1-[(1-methyl-1H-imidazol-4-yl)sulfonyl]-N-[2-(trifluoromethyl)benzyl]pyrrolidin-3-amine]
